Assay results published in patent US8642011B2 (priority 2006, dated 2014).
Converted amounts (≈) assume the structure as drawn.

Experiments:
Assay in all cases: microbe, parasite or virus in culture
Conditions in all cases: Mycobacterium tuberculosis, read-out: minimum inhibitory concentration (MIC)
[1] = system: SO2 strain; format: cell-based, M. tuberculosis
[2] = system: M. tuberculosis strains H37Rv; format: cell-based
[3] = system: MT103 (wild type); format: cell-based, M. tuberculosis

SMILES	MIC [1] [µg/mL]	MIC [2] [µg/mL]	MIC [3] [µg/mL]
CO[C@H]1/C=C/O[C@@]2(C)Oc3c(C)c(O)c4c(O)c(c(/C=N/N5CCN(C)CC5)c(O)c4c3C2=O)NC(=O)/C(C)=C\C=C\[C@H](C)[C@H](O)[C@@H](C)[C@@H](O)[C@@H](C)[C@H](OC(C)=O)[C@@H]1C [Rifampicin]	< 0.004	< 0.004	< 0.004
CC[C@@H](CO)NCCN[C@@H](CC)CO [Ethambutol]	2 (≈ 9.79 µM)	2 (≈ 9.79 µM)	2 (≈ 9.79 µM)
[H]/N=C(/N)N[C@H]1[C@H](O)[C@@H](O)[C@H](O[C@@H]2O[C@@H](C)[C@](O)(C=O)[C@H]2O[C@@H]2O[C@@H](CO)[C@H](O)[C@@H](O)[C@@H]2NC)[C@@H](N/C(N)=N\[H])[C@@H]1O [Streptomycin]	< 0.5	< 0.5	< 0.5
NNC(=O)c1ccncc1 [Isoniazid]	0.25 (≈ 1.82 µM)	0.5 (≈ 3.65 µM)	0.5 (≈ 3.65 µM)
